The values below come from US10526389B2, “Peptides and combinations of peptides for use in immunotherapy against lung cancer, including NSCLC and other cancers” (Immatics Biotechnologies GmbH, priority 2015, dated 2020).

This experiment deals with CD8+ T cells. The experiment in a line: In vitro immunogenicity of HLA-A*24 peptides (CD8+ T-cell priming with aAPCs, multimer staining). In kind it is cell-based, human. The protocol: In order to obtain information regarding the immunogenicity of the TUMAPs of the present invention, the inventors performed investigations using an in vitro T-cell priming assay based on repeated stimulations of CD8+ T cells with artificial antigen presenting cells (aAPCs) loaded with peptide/MHC complexes and anti-CD28 antibody.
Generation of pMHC/anti-CD28 coated beads, T-cell stimulations and readout was performed in a highly defined in vitro system using four different pMHC molecules per stimulation condition and 8 different pMHC molecules per readout condition.
The purified co-stimulatory mouse IgG2a anti human CD28 Ab 9.3 (Jung et al., 1987) was chemically biotinylated using Sulfo-N-hydroxysuccinimidobiotin as recommended by the manufacturer (Perbio, Bonn, Germany). Beads used were 5.6 μm diameter streptavidin coated polystyrene particles (Bangs Laboratories, Illinois, USA).
800.000 beads/200 μl were coated in 96-well plates in the presence of 4×12.5 ng different biotin-pMHC, washed and 600 ng biotin anti-CD28 were added subsequently in a volume of 200 μl. Stimulations were initiated in 96-well plates by co-incubating 1×10^6 CD8+ T cells with 2×10^5 washed coated beads in 200 μl TCM supplemented with 5 ng/ml IL-12 (PromoCell) for 3 days at 37° C. Half of the medium was then exchanged by fresh TCM supplemented with 80 U/ml IL-2 and incubating was continued for 4 days at 37° C. This stimulation cycle was performed for a total of three times. For the pMHC multimer readout using 8 different pMHC molecules per condition, a two-dimensional combinatorial coding approach was used as previously described (Andersen et al., 2012) with minor modifications encompassing coupling to 5 different fluorochromes. Finally, multimeric analyses were performed by staining the cells with Live/dead near IR dye (Invitrogen, Karlsruhe, Germany), CD8-FITC antibody clone SK1 (BD, Heidelberg, Germany) and fluorescent pMHC multimers. For analysis, a BD LSRII SORP cytometer equipped with appropriate lasers and filters was used. Peptide specific cells were calculated as percentage of total CD8+ cells. Evaluation of multimeric analysis was done using the FlowJo software (Tree Star, Oregon, USA). In vitro priming of specific multimer+CD8+ lymphocytes was detected by comparing to negative control stimulations.
Exemplary flow cytometry results after TUMAP-specific multimer staining for 3 peptides of the invention are shown in FIGS. 3A-3E together with corresponding negative controls.

As for “AIFM2-001 (AYKPGALTF; listed as Homo sapiens)”, the “in vitro immunogenicity: donors” value is recorded as “++ (20%-49% = ++)” and the “in vitro immunogenicity: wells” value is “+ (<20% = +)”.

With “TYKYVDINTF (listed as Homo sapiens) [SEQ ID No. 159]”, the “in vitro immunogenicity: donors” value was “+++ (50%-69% = +++)” and the “in vitro immunogenicity: wells” value was “+ (<20% = +)”.

With “KLRD-001 (QYLFPSFETF; listed as Homo sapiens)”, the “in vitro immunogenicity: donors” value is given as “++++ (>= 70% = ++++)” and the “in vitro immunogenicity: wells” value is listed as “+ (<20% = +)”.

Take “DYR-001 (VYTZIQSRF; listed as Homo sapiens)”: the “in vitro immunogenicity: donors” value was “++ (20%-49% = ++)” and the “in vitro immunogenicity: wells” value is “+ (<20% = +)”.

“PSMA4-001 (LYIGWDKHYGF; listed as Homo sapiens)”: the “in vitro immunogenicity: donors” value is “++++ (>= 70% = ++++)” and the “in vitro immunogenicity: wells” value is “+ (<20% = +)”.

Take “KYLEKYYNL (listed as Homo sapiens) [SEQ ID No. 30]”: the “in vitro immunogenicity: donors” value is listed as “++++ (>= 70% = ++++)” and the “in vitro immunogenicity: wells” value was “++ (20%-49% = ++)”.

Regarding “TTC13-001 (RYLEYFEKI; listed as Homo sapiens)”, the “in vitro immunogenicity: donors” value is given as “++++ (>= 70% = ++++)” and the “in vitro immunogenicity: wells” value is listed as “+++ (50%-69% = +++)”.

As to “COL6A3-012 (RYPPPVREF; listed as Homo sapiens)”, the “in vitro immunogenicity: donors” value is reported as “++++ (>= 70% = ++++)” and the “in vitro immunogenicity: wells” value was “++ (20%-49% = ++)”.

“TRPM2-001 (VYHSYLTIF; listed as Homo sapiens)”: the “in vitro immunogenicity: donors” value is recorded as “++++ (>= 70% = ++++)” and the “in vitro immunogenicity: wells” value was “++ (20%-49% = ++)”.

Regarding “RYLEKFYGL (listed as Homo sapiens) [SEQ ID No. 26]”, the “in vitro immunogenicity: donors” value is “++++ (>= 70% = ++++)” and the “in vitro immunogenicity: wells” value is given as “+ (<20% = +)”.

Take “RASA2-001 (YYVDKLFNTI; listed as Homo sapiens)”: the “in vitro immunogenicity: donors” value is reported as “++ (20%-49% = ++)” and the “in vitro immunogenicity: wells” value is listed as “+ (<20% = +)”.

On to “RYTLHINTL (listed as Homo sapiens) [SEQ ID No. 43]”, for which the “in vitro immunogenicity: donors” value is recorded as “++ (20%-49% = ++)” and the “in vitro immunogenicity: wells” value is given as “+ (<20% = +)”.

In the case of “SAMD9L-001 (IYQRWKDLL; listed as Homo sapiens)”, the “in vitro immunogenicity: donors” value was “+++ (50%-69% = +++)” and the “in vitro immunogenicity: wells” value is “+ (<20% = +)”.

Take “HSPBP-001 (RYLEAGAAGLRW; listed as Homo sapiens)”: the “in vitro immunogenicity: donors” value is on record as “+ (<20% = +)” and the “in vitro immunogenicity: wells” value was “+ (<20% = +)”.

“TPS-001 (IYTRVTYYL; listed as Homo sapiens)”: the “in vitro immunogenicity: donors” value was “++++ (>= 70% = ++++)” and the “in vitro immunogenicity: wells” value is “++ (20%-49% = ++)”.

Turning to “DCSTA-001 (KYIEAIQWI; listed as Homo sapiens)”, the “in vitro immunogenicity: donors” value is “++++ (>= 70% = ++++)” and the “in vitro immunogenicity: wells” value is recorded as “++ (20%-49% = ++)”.

With “SMPDL3B-001 (IYNQIAELW; listed as Homo sapiens)”, the “in vitro immunogenicity: donors” value is “++++ (>= 70% = ++++)” and the “in vitro immunogenicity: wells” value is given as “++ (20%-49% = ++)”.

On to “C6orf132-001 (RYGSPINTF; listed as Homo sapiens)”, for which the “in vitro immunogenicity: donors” value was “+++ (50%-69% = +++)” and the “in vitro immunogenicity: wells” value was “+ (<20% = +)”.

For “RYISPDQLADL (listed as Homo sapiens) [SEQ ID No. 47]”, the “in vitro immunogenicity: donors” value is “+++ (50%-69% = +++)” and the “in vitro immunogenicity: wells” value is listed as “+ (<20% = +)”.

Take “PVRL1-001 (IYNPSMGVSVL; listed as Homo sapiens)”: the “in vitro immunogenicity: donors” value was “++ (20%-49% = ++)” and the “in vitro immunogenicity: wells” value is recorded as “+ (<20% = +)”.

“COL6A3-001 (SYLQAANAL; listed as Homo sapiens)”: the “in vitro immunogenicity: donors” value was “++ (20%-49% = ++)” and the “in vitro immunogenicity: wells” value was “+ (<20% = +)”.
